# In US7034162B2, “Amorphous form of 3-[2-(dimethylamino) ethyl]-N-methyl-1H-indole-5-methane sulfonamide succinate (sumatriptan succinate)” (Dr. Reddy's Laboratories Limited, priority 2000, dated 2006):
# Assay: thermal stability of the solid (stated property, no method described)
# Assay type: physicochemical
# Conditions: solid amorphous form; test conditions not given
compound,measurement,value
"CNS(=O)(=O)Cc1ccc2[nH]cc(CCN(C)C)c2c1.O=C(O)CCC(=O)O [amorphous form of Sumatriptan succinate, 3-[2-(dimethylamino)ethyl]-N-methyl-1H-indole-5-methane sulfonamide succinate]",thermal stability of the solid,thermally stable
